Drawing on patent EP0426225A2, “(6,7-dihydro-5H-pyrrolo[1,2-c]-imidazol-5-yl)- and (5,6,7,8-tetrahydroimidazo[1,5-a]pyridin-5-yl) substituted 1H-benzotriazole derivatives” (JANSSEN PHARMACEUTICA N.V., priority 1989, dated 1991), this text covers IC50 and inhibition for 23 compounds.

Experiment [1] addresses T1, aromatase (Homo sapiens, UniProt P11511).
T1 construct: from tissue; host or cells: human placental microsomes
T1 sequence (P11511 1-503): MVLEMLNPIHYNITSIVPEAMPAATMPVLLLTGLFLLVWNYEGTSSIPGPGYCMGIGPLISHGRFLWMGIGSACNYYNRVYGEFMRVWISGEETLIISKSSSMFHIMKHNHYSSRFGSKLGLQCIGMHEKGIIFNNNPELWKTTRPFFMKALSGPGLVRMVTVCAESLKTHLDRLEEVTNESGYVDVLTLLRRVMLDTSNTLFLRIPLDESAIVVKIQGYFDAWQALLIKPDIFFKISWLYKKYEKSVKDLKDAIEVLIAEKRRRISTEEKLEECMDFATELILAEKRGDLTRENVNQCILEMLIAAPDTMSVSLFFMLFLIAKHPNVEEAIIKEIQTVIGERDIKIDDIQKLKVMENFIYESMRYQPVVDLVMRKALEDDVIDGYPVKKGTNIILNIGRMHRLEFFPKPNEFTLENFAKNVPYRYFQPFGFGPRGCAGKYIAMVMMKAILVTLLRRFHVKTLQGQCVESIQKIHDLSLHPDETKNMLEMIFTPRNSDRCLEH
Nature of the experiment: In vitro inhibition of the aromatase activity test (conversion of 1,2[3H]-androstenedione into estrone and estradiol, human placental microsomes). It counts as biochemical. Conditions: 30 min at 37°C, concentration required to obtain 50% inhibition of the estrogen synthesis, read-out: Aromatase in vitro IC₅₀. How it is done: Human placental microsomes were diluted in potassium phosphate buffer (0.1M, pH 7.4) to give about 50% conversion of androgens to estrogens (protein content : about 0.5 mg). Four ml human placental microsomes were incubated in a final volume of 5 ml with 0.2 µCi 1,2[³H]-androstenedione, 2 µg androstenedione and 5 µl of test compound and/or dimethylsulfoxide (DMSO). […] The reaction was initiated by the addition of androstenedione and proceeded for 30 min at 37°C. During the incubation period, the mixtures were gassed with air. In this assay, aromatization of androstenedione results in the production of [3H]-H₂O which is isolated by extracting the samples with chloroform to remove the free steroid.

In experiment [2] the target is T2, aromatase (Rattus norvegicus, UniProt P22443).
T2 construct: Immature female Wistar rats weighing 120 g were injected subcutaneously; from tissue; host or cells: whole animal: immature female Wistar rats primed with PMSG (endogenous, mainly ovarian, aromatase by own knowledge)
T2 sequence (P22443 1-508): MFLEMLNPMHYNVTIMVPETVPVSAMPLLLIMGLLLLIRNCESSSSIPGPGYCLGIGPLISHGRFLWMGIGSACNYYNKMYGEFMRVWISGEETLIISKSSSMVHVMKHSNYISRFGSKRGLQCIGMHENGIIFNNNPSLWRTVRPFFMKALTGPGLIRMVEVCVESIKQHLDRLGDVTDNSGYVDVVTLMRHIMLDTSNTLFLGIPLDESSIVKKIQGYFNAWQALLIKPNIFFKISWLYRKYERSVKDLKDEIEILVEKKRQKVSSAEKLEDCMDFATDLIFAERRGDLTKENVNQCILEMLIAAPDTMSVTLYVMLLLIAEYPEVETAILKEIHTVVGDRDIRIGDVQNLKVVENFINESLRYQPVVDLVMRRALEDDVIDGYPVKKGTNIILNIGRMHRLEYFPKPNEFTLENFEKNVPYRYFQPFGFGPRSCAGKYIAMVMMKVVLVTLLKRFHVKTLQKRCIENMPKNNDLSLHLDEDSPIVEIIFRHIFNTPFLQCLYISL
Nature of the experiment: In vivo inhibition of the aromatase activity (plasma estradiol in PMSG-injected immature female rats). Details: species or system Wistar rats. Particulars: read-out: Aromatase in vivo % inhibition at 1 mg/kg. The protocol:
Immature female Wistar rats weighing 120 g were injected subcutaneously with 200 I.U. of pregnant mare's serum gonadotropin (PMSG). Ninety hours later, 1 mg/kg of the test compound dissolved in 0.5 ml 20% polyethyleneglycol in water was administered by oral gavage. Control animals received 20% polyethyleneglycol only. Two hours following drug or placebo administration the rats were killed by decapitation and trunk blood was collected on heparine. Plasma estradiol concentrations were measured by standard radio-immunological procedures. […]

[3] abbreviates: 1 mg/kg by oral gavage, immature female Wistar rats 90 h after PMSG, plasma estradiol two hours after administration, relative to controls.

Structures are written as SMILES. Where a name gives a salt, the structure may show the parent alone. Read-outs that look alike come from different tables or passages of the source.

As to `N#Cc1ccc(COn2nnc3ccc(C4CCCc5cncn54)cc32)cc1` (stereo not shown) [Compound 2], the IC50 at aromatase [1] worked out at 44.2 nM. For the same compound, the inhibition at 1 mg/kg at aromatase [2] (setting [3]) worked out at 96%.
The like results for `CCCOn1nnc2ccc(C3CCCc4cncn43)cc21` (stereo not shown) [Compound 3] were, in that order, 29.5 nM and 92%.
For `CCOn1nnc2ccc(C3CCCc4cncn43)cc21` (stereo not shown) [Compound 4] the same measures were 37.5 nM and 94%.
Regarding `C=CCOn1nnc2ccc(C3CCCc4cncn43)cc21` (stereo not shown) [Compound 5], the IC50 on aromatase [1] worked out at 27.9 nM. For the same compound, the inhibition at 1 mg/kg at aromatase [2] (setting [3]) was 95%.
Regarding `CC(C)COn1nnc2ccc(C3CCCc4cncn43)cc21` (stereo not shown) [Compound 6], on aromatase [1], the IC50 came out at 59.2 nM. The inhibition at 1 mg/kg at aromatase [2] (setting [3]) is 86%.
In the case of `c1cc2nnn(OCC3CC3)c2cc1C1CCCc2cncn21` (stereo not shown) [Compound 8, 1-(cyclopropylmethoxy)-6-(5,6,7,8-tetrahydroimidazo[1,5-a]pyridin-5-yl)-1H-benzotriazole mononitrate], at aromatase [1], the IC50 came out at 31.9 nM. Moreover, the inhibition at 1 mg/kg on aromatase [2] (po) is 87%.
Turning to `COn1nnc2ccc(C3CCCc4cncn43)cc21` (stereo not shown) [Compound 9], the IC50 on aromatase [1] amounted to 57 nM. For the same compound, on aromatase [2] (setting [3]), the inhibition at 1 mg/kg was found to be 89%.
For `CCCCOn1nnc2ccc(C3CCCc4cncn43)cc21` (stereo not shown) [Compound 10] the same measures were 31.7 nM and 88%.
For `C=C(C)COn1nnc2ccc(C3CCCc4cncn43)cc21` (stereo not shown) [Compound 12], the IC50 at aromatase [1] was found to be 25.2 nM. In addition, on aromatase [2] (setting [3]), the inhibition at 1 mg/kg was found to be 85%.
The like results for `C#CCOn1nnc2ccc(C3CCCc4cncn43)cc21` (stereo not shown) [Compound 14] were, in that order, 29.5 nM and 80%.
Take `N#CCCCCOn1nnc2ccc(C3CCCc4cncn43)cc21` (stereo not shown) [Compound 18]: the IC50 at aromatase [1] is 34.6 nM. Besides, the inhibition at 1 mg/kg at aromatase [2] (setting [3]) came out at 88%.
The like results for `CCC(C)On1nnc2ccc(C3CCCc4cncn43)cc21` (stereo not shown) [Compound 20] were, in that order, 39.3 nM and 87%.
For `OCCOn1nnc2ccc(C3CCCc4cncn43)cc21` (stereo not shown) [Compound 21] the same measures were below 1000 nM and 88%.
For `Cn1nnc2ccc(C3CCCc4cncn43)cc21` (stereo not shown) [Compound 23] the same measures were 89.8 nM and 93%.
For `CCCCn1nnc2ccc(C3CCCc4cncn43)cc21` (stereo not shown) [Compound 24], the IC50 on aromatase [1] came to 31.7 nM. Besides, at aromatase [2] (setting [3]), the inhibition at 1 mg/kg worked out at 89%.
The like results for `CC(C)n1nnc2ccc(C3CCCc4cncn43)cc21` (stereo not shown) [Compound 25] were, in that order, 55.6 nM and 91%.
For `CCn1nnc2ccc(C3CCCc4cncn43)cc21` (stereo not shown) [Compound 26, 1-ethyl-6-(5,6,7,8-tetrahydroimidazo[1,5-a]pyridin-5-yl)-1H-benzotriazole monohydrochloride] the same measures were 54 nM and 93%.
The like results for `CCCCCCn1nnc2ccc(C3CCCc4cncn43)cc21` (stereo not shown) [Compound 27] were, in that order, 25.4 nM and 86%.
Regarding `c1cc2nnn(C3CCCC3)c2cc1C1CCCc2cncn21` (stereo not shown) [Compound 30], on aromatase [1], the IC50 was determined as 42.3 nM. For the same compound, at aromatase [2] (setting [3]), the inhibition at 1 mg/kg was found to be 93%.
`CCCn1nnc2ccc(C3CCCc4cncn43)cc21` (stereo not shown) [Compound 31]: the IC50 at aromatase [1] was determined as 43.5 nM. Moreover, on aromatase [2] (setting [3]), the inhibition at 1 mg/kg turned out to be 96%.
The like results for `CC(C)(C)n1nnc2ccc(C3CCCc4cncn43)cc21` (stereo not shown) [Compound 32] were, in that order, 54 nM and 95%.
For `CC(C)Cn1nnc2ccc(C3CCCc4cncn43)cc21` (stereo not shown) [Compound 33] the same measures were 46 nM and 96%.
Consider `c1cc2nnn(C3CCCCC3)c2cc1C1CCCc2cncn21` (stereo not shown) [Compound 35], for which the IC50 at aromatase [1] is 41 nM. On aromatase [2] (setting [3]), the inhibition at 1 mg/kg is 98%.
